Assay results from patent US9149038B2, “4-amino-6-(heterocyclic)picolinates and 6-amino-2-(heterocyclic)pyrimidine-4-carboxylates and their use as herbicides” (Dow AgroSciences LLC, priority 2013, dated 2015).
Like-named read-outs stand apart in the source and are kept apart here.

Columns and labels:
[1] = system: Key Broadleaf and Grass Weed as well as Crop Species; assay: Post-Emergent Test I: postemergent herbicidal activity, visual phytotoxicity rating 10 days after treatment (Table 5); assay type: in vivo; settings: 4 kg ai/ha; for Visual Growth Reduction (%) 10 Days After Application ECHCG: barnyardgrass (Echinochloa crus-galli); for pest or weed control at 4000 g/ha: post-emergence, 240 h, 10 days after application
Method: Herbicidal evaluations were made visually on a scale of 0 to 100 where 0 represents no activity and 100 represents complete plant death. Post-Emergent Test I: Seeds of test species were obtained from commercial suppliers and planted into a 5″-round pot containing soil-less media mix (Metro-Mix 360®, Sun Gro Horticulture). Postemergence treatments were planted 8-12 days (d) prior to application and cultured in a greenhouse equipped with supplemental light sources to provide a 16 h photoperiod at 24-29° C. All pots were surface irrigated. Approximately 10 milligrams (mg) of each compound were dissolved in 1.3 mL acetone-DMSO (97:3, volume per volume (v/v)) and diluted with 4.1 mL water-isopropanol-crop oil concentrate (78:20:2, v/v/v) containing 0.02% Triton X-155. Treatments were serial diluted with the above formulation solvent to provide 1.85, 0.926, 0.462 and 0.231 milligrams per milliliter (mg/mL) of test compound delivered in 2.7 mL/pot (roughly equivalent to 4.0, 2.0, 1.0, and 0.5 kg/ha, respectively). Formulated compounds were applied using a DeVilbiss® compressed air sprayer at 2-4 pounds per square inch (psi). Following treatment, pots were returned to the greenhouse for the duration of the experiment. All pots were sub-irrigated as needed to provide optimum growing conditions. All pots were fertilized one time per week by subirrigating with Peters Peat-Lite Special® fertilizer (20-10-20). Phytotoxicity ratings were obtained 10 days after treatment postemergence applications. All evaluations were made visually on a scale of 0 to 100 where 0 represents no activity and 100 represents complete plant death and are presented as indicated in Table 4.

[2] = system: Key Grass and Sedge Weeds as well as Grass Crops; assay: Post-Emergent Test II: postemergent herbicidal activity, visual rating after 14 d (Table 8); assay type: in vivo; settings: post-emergence, 336 h; for pest or weed control at 35 g/ha: 35 g ai/ha; for pest or weed control at 70 g/ha: 70 g ai/ha; for pest or weed control at 140 g/ha: 140 g ai/ha
From the text: (§1) Herbicidal evaluations were made visually on a scale of 0 to 100 where 0 represents no activity and 100 represents complete plant death.
(§2) Seeds or nutlets of the desired test plant species were planted in Sun Gro Metro-Mix® 360 planting mixture, which typically has a pH of 6.0 to 6.8 and an organic matter content of about 30 percent, in plastic pots with a surface area of 64 square centimeters (cm^2). When required to ensure good germination and healthy plants, a fungicide treatment and/or other chemical or physical treatment was applied. The plants were grown for 7-21 d in a greenhouse with an approximate 15 h photoperiod which was maintained at about 23-29° C. during the day and 22-28° C. during the night. Nutrients and water were added on a regular basis and supplemental lighting was provided with overhead metal halide 1000-Watt lamps as necessary. The plants were employed for testing when they reached the first or second true leaf stage.
(§3) A weighed amount, determined by the highest rate to be tested, of each test compound was placed in a 25 mL glass vial and was dissolved in 4 mL of a 97:3 v/v mixture of acetone and DMSO to obtain concentrated stock solutions. […] The concentrated stock solutions obtained were diluted with 20 mL of an aqueous mixture containing acetone, water, isopropyl alcohol, DMSO, Atplus 411F crop oil concentrate, and Triton® X-155 surfactant in a 48.5:39:10:1.5:1.0:0.02 v/v ratio to obtain spray solutions containing the highest application rates. Additional application rates were obtained by serial dilution of 12 mL of the high rate solution into a solution containing 2 mL of a 97:3 v/v mixture of acetone and DMSO and 10 mL of an aqueous mixture containing acetone, water, isopropyl alcohol, DMSO, Atplus 411F crop oil concentrate, and Triton X-155 surfactant in a 48.5:39:10:1.5:1.0:0.02 v/v ratio to obtain ½×, ¼×, ⅛× and 1/16× rates of the high rate. Compound requirements are based upon a 12 mL application volume at a rate of 187 liters per hectare (L/ha). Formulated compounds were applied to the plant material with an overhead Mandel track sprayer equipped with 8002E nozzles calibrated to deliver 187 L/ha over an application area of 0.503 square meters at a spray height of 18 inches (43 cm) above the average plant canopy height. Control plants were sprayed in the same manner with the solvent blank.
(§4) The treated plants and control plants were placed in a greenhouse as described above and watered by subirrigation to prevent wash-off of the test compounds. After 14 d, the condition of the test plants as compared with that of the untreated plants was determined visually and scored on a scale of 0 to 100 percent where 0 corresponds to no injury and 100 corresponds to complete kill and are presented as indicated in Table 4.

[3] = system: Key Broadleaf Weed and Crop Species; assay: Post-Emergent Test II: postemergent herbicidal activity, visual rating after 14 d (Table 7); assay type: in vivo; settings: post-emergence, 336 h; for pest or weed control at 35 g/ha: 35 g ai/ha; for pest or weed control at 70 g/ha: 70 g ai/ha; for pest or weed control at 140 g/ha: 140 g ai/ha
From the text: as §1, §2, §3, §4

[4] = giant foxtail (Setaria faberi), read-out: Visual Growth Reduction (%) 10 Days After Application SETFA
[5] = ivyleaf morningglory (Ipomoea hederecea), read-out: Visual Growth Reduction (%) 10 Days After Application IPOHE
[6] = sunflower (Helianthus annuus), read-out: Visual Growth Reduction (%) 10 Days After Application HELAN
[7] = wild oats (Avena fatua), read-out: Visual Growth Reduction (%) 10 Days After Application AVEFA
[8] = barnyardgrass (Echinochloa crus-galli), read-out: Visual Growth Reduction (%) 14 Days After Application ECHCG
[9] = maize, corn (Zea mays), read-out: Visual Growth Reduction (%) 14 Days After Application ZEAMX
[10] = rice (Oryza sativa), read-out: Visual Growth Reduction (%) 14 Days After Application ORYSA
[11] = wheat, spring (Triticum aestivum), read-out: Visual Growth Reduction (%) 14 Days After Application TRZAS
[12] = yellow nutsedge (Cyperus esculentus), read-out: Visual Growth Reduction (%) 14 Days After Application CYPES
[13] = lambsquarters (Chenopodium album), read-out: Visual Growth Reduction (%) 14 Days After Application CHEAL
[14] = oilseed rape, canola (Brassica napus), read-out: Visual Growth Reduction (%) 14 Days After Application BRSNN
[15] = redroot pigweed (Amaranthus retroflexus), read-out: Visual Growth Reduction (%) 14 Days After Application AMARE
[16] = sunflower (Helianthus annuus), read-out: Visual Growth Reduction (%) 14 Days After Application HELAN
[17] = velvetleaf (Abutilon theophrasti), read-out: Visual Growth Reduction (%) 14 Days After Application ABUTH
[18] = wild poinsettia (Euphorbia heterophylla), read-out: Visual Growth Reduction (%) 14 Days After Application EPHHL

`COC(=O)c1nc(-c2ccc3c(c2F)OC(F)(F)O3)c(C)c(N)c1Cl` [Compound 53] showed a melting point of 153.5 to 155 °C.

For `Cc1c(-c2ccc3c(c2F)OC(F)(F)O3)nc(C(=O)O)c(Cl)c1N` [Compound 54], the “Visual Growth Reduction (%) 10 Days After Application ECHCG” value [1] was “G (0-29)”, the pest or weed control at 4000 g/ha [1, 4] was 0 to 29% and the pest or weed control at 4000 g/ha [1, 5] was 0 to 29%. For the same compound, the pest or weed control at 4000 g/ha [1, 6] was 60 to 74% and the pest or weed control at 4000 g/ha [1, 7] was 0 to 29%.

Compound `C=Cc1c(C(=O)OC)nc(-c2ccc3c(c2)OC(F)(F)O3)c(F)c1N` [Compound 29] has a melting point of 112 to 114 °C.

With `Cc1c(-c2cc3c(cc2F)OC(F)(F)O3)nc(C(=O)O)c(Cl)c1N` [Compound 51] the “Visual Growth Reduction (%) 10 Days After Application ECHCG” value [1] was “G (0-29)”, the pest or weed control at 4000 g/ha [1, 4] was 0 to 29% and the pest or weed control at 4000 g/ha [1, 5] was 0 to 29%. It also gave a pest or weed control at 4000 g/ha [1, 6] of 60 to 74% and a pest or weed control at 4000 g/ha [1, 7] of 0 to 29%.

`COC(=O)c1nc(-c2cc3c(cc2Cl)OC(F)(F)O3)cc(N)c1Cl` [Compound 40] gave a pest or weed control at 35 g/ha [2, 8] of 0 to 29%, a pest or weed control at 70 g/ha [2, 8] of 0 to 29% and a pest or weed control at 140 g/ha [2, 8] of 0 to 29%. It also gave a pest or weed control at 35 g/ha [2, 9] of 0 to 29%, a pest or weed control at 70 g/ha [2, 9] of 0 to 29% and a pest or weed control at 140 g/ha [2, 9] of 45 to 59%. It also gave a pest or weed control at 35 g/ha [2, 10] of 0 to 29%, a pest or weed control at 70 g/ha [2, 10] of 0 to 29% and a pest or weed control at 140 g/ha [2, 10] of 0 to 29%. For the same compound, the pest or weed control at 35 g/ha [2, 11] was 0 to 29%, the pest or weed control at 70 g/ha [2, 11] was 0 to 29% and the pest or weed control at 140 g/ha [2, 11] was 0 to 29%. The pest or weed control at 35 g/ha [2, 12] was 0 to 29%, the pest or weed control at 70 g/ha [2, 12] was 0 to 29% and the pest or weed control at 140 g/ha [2, 12] was 0 to 29%. The pest or weed control at 35 g/ha [3, 13] was 0 to 29%, the pest or weed control at 70 g/ha [3, 13] was 0 to 29% and the pest or weed control at 140 g/ha [3, 13] was 0 to 29%. For the same compound, the pest or weed control at 35 g/ha [3, 14] was 0 to 29%, the pest or weed control at 70 g/ha [3, 14] was 0 to 29% and the pest or weed control at 140 g/ha [3, 14] was 0 to 29%. For the same compound, the pest or weed control at 35 g/ha [3, 15] was 0 to 29%, the pest or weed control at 70 g/ha [3, 15] was 95 to 100% and the pest or weed control at 140 g/ha [3, 15] was 95 to 100%. The pest or weed control at 35 g/ha [3, 16] was 0 to 29%, the pest or weed control at 70 g/ha [3, 16] was 0 to 29% and the pest or weed control at 140 g/ha [3, 16] was 0 to 29%. For the same compound, the pest or weed control at 35 g/ha [3, 17] was 0 to 29%, the pest or weed control at 70 g/ha [3, 17] was 0 to 29% and the pest or weed control at 140 g/ha [3, 17] was 0 to 29%. It also gave a pest or weed control at 35 g/ha [3, 18] of 0 to 29%, a pest or weed control at 70 g/ha [3, 18] of 0 to 29% and a pest or weed control at 140 g/ha [3, 18] of 0 to 29%.

Work on `Nc1cc(-c2cccc3c2OC(F)(F)O3)nc(C(=O)O)c1Cl` [Compound 85] yielded a melting point of 170 °C.

With `COc1cc2c(cc1-c1cc(N)c(Cl)c(C(=O)O)n1)OC(F)(F)O2` [Compound 39] the melting point was 165 to 166 °C.

Compound `COC(=O)c1nc(-c2ccc3c(c2F)OC(F)(F)O3)nc(N)c1OC` [Compound 65] has a melting point of 109 to 111 °C.

For `COC(=O)c1nc(-c2cc(F)c3c(c2)OC(F)(F)O3)cc(N)c1Cl` [Compound 43], the melting point was 176 to 177 °C.

`COC(=O)c1nc(-c2cc3c(cc2F)OC(F)(F)O3)c(C)c(N)c1Cl` [Compound 50] gave a melting point of 162 to 165 °C.
